Values quoted from earlier work in publication PMC3433420 (PLoS ONE, 2012).
Like-named read-outs stand apart in the source and are kept apart here.

Target: SH2 and PTB domains
Conditions: cited from earlier work
From the text: Supplement pone.0044471.s022.xlsx, sheet "Most recent PM interactions" | column: Kd || Supplement pone.0044471.s022.xlsx, sheet "All original PM interactions" | column: Kd

[1] = Protein ABL2, most recent PM interactions, ref Jones et al. 2006 / Kaushansky et al. Chem and Biol 2008
[2] = Protein FGR, most recent PM interactions, ref Jones et al. 2006 / Kaushansky et al. Chem and Biol 2008
[3] = Protein GRB2, most recent PM interactions, ref Jones et al. 2006 / Kaushansky et al. Chem and Biol 2008
[4] = Protein ITK, most recent PM interactions, ref Jones et al. 2006 / Kaushansky et al. Chem and Biol 2008
[5] = Protein NCK2, most recent PM interactions, ref Jones et al. 2006 / Kaushansky et al. Chem and Biol 2008
[6] = Protein PIK3R1-NC, most recent PM interactions, ref Jones et al. 2006 / Kaushansky et al. Chem and Biol 2008
[7] = Protein PIK3R2-N, most recent PM interactions, ref Jones et al. 2006 / Kaushansky et al. Chem and Biol 2008
[8] = Protein PIK3R3-N, most recent PM interactions, ref Jones et al. 2006 / Kaushansky et al. Chem and Biol 2008
[9] = Protein PIK3R3-NC, most recent PM interactions, ref Jones et al. 2006 / Kaushansky et al. Chem and Biol 2008
[10] = Protein PLCG2-NC, most recent PM interactions, ref Jones et al. 2006 / Kaushansky et al. Chem and Biol 2008
[11] = Protein RASA1-N, most recent PM interactions, ref Jones et al. 2006 / Kaushansky et al. Chem and Biol 2008
[12] = Protein SYK-NC, most recent PM interactions, ref Jones et al. 2006 / Kaushansky et al. Chem and Biol 2008
[13] = Protein VAV1, most recent PM interactions, ref Jones et al. 2006 / Kaushansky et al. Chem and Biol 2008
[14] = Protein VAV2, most recent PM interactions, ref Jones et al. 2006 / Kaushansky et al. Chem and Biol 2008
[15] = protein ABL2, ref Jones et al. 2006 / Kaushansky et al. Mol Biosys 2008 / Kaushansky et al. Chem and Biol 2008

For PLTCSPQPEpYVNQPDVR [ErbB2 1139], the Kd (Protein ABL1, most recent PM interactions, ref Jones et al. 2006 / Kaushansky et al. Chem and Biol 2008) is listed as 160 nM, the Kd [1] is listed as 70 nM and the Kd (Protein BCAR3, most recent PM interactions, ref Jones et al. 2006 / Kaushansky et al. Chem and Biol 2008) is listed as 1000 nM. The Kd (Protein BMX, most recent PM interactions, ref Jones et al. 2006 / Kaushansky et al. Chem and Biol 2008) was 520 nM, the Kd [2] was 450 nM and the Kd (Protein GRAP2, most recent PM interactions, ref Jones et al. 2006 / Kaushansky et al. Chem and Biol 2008) was 960 nM. The Kd [3] was 76 nM, the Kd [4] was 1510 nM and the Kd [5] was 780 nM. The Kd (Protein PIK3R1-N, most recent PM interactions, ref Jones et al. 2006 / Kaushansky et al. Chem and Biol 2008) was 510 nM, the Kd [6] was 740 nM and the Kd [7] was 280 nM. For the same substance, the Kd (Protein PIK3R2-NC, most recent PM interactions, ref Jones et al. 2006 / Kaushansky et al. Chem and Biol 2008) was 780 nM, the Kd (Protein PIK3R3-C, most recent PM interactions, ref Jones et al. 2006 / Kaushansky et al. Chem and Biol 2008) was 1220 nM and the Kd [8] was 400 nM. For the same substance, the Kd [9] was 300 nM, the Kd (Protein PLCG1-C, most recent PM interactions, ref Jones et al. 2006 / Kaushansky et al. Chem and Biol 2008) was 1930 nM and the Kd [10] was 1280 nM. For the same substance, the Kd (Protein PTPN11-NC, most recent PM interactions, ref Jones et al. 2006 / Kaushansky et al. Chem and Biol 2008) was 880 nM, the Kd [11] was 680 nM and the Kd (Protein SH2D2A, most recent PM interactions, ref Jones et al. 2006 / Kaushansky et al. Chem and Biol 2008) was 980 nM. The Kd (Protein SH3BP2, most recent PM interactions, ref Jones et al. 2006 / Kaushansky et al. Chem and Biol 2008) was 410 nM, the Kd [12] was 970 nM and the Kd (Protein TENC1, most recent PM interactions, ref Jones et al. 2006 / Kaushansky et al. Chem and Biol 2008) was 570 nM. For the same substance, the Kd (Protein TNS3, most recent PM interactions, ref Jones et al. 2006 / Kaushansky et al. Chem and Biol 2008) was 770 nM, the Kd [13] was 210 nM and the Kd [14] was 230 nM.

In the case of THDPSPLQRpYSEDPTVPd [ErbB2 1112], the Kd (Protein BLK, most recent PM interactions, ref Kaushansky et al. Chem and Biol 2008) is given as 760 nM and the Kd (Protein PLCG2-NC, most recent PM interactions, ref Kaushansky et al. Chem and Biol 2008) is given as 1060 nM.

For “QHPDpYLQEYSTKd [ErbB4 pY1258, N-terminally rhodamine-labeled 13-mer phosphopeptide]”, the Kd (protein ABL2, all original PM interactions, ref Jones et al. 2006 / Kaushansky et al. Chem and Biol 2008) is listed as 880 nM, the Kd (protein PIK3R3-NC, all original PM interactions, ref Jones et al. 2006 / Kaushansky et al. Chem and Biol 2008) is listed as 2000 nM and the Kd (protein PLCG1-C, all original PM interactions, ref Jones et al. 2006 / Kaushansky et al. Chem and Biol 2008) is listed as 2000 nM. The Kd (protein PLCG1-NC, all original PM interactions, ref Jones et al. 2006 / Kaushansky et al. Chem and Biol 2008) was 2000 nM, the Kd (protein RASA1-N, all original PM interactions, ref Jones et al. 2006 / Kaushansky et al. Chem and Biol 2008) was 2000 nM and the Kd (protein SHC1-PTB, all original PM interactions, ref Jones et al. 2006 / Kaushansky et al. Chem and Biol 2008) was 2000 nM. The Kd (protein SLA, all original PM interactions, ref Jones et al. 2006 / Kaushansky et al. Chem and Biol 2008) was 2000 nM, the Kd (protein SYK-NC, all original PM interactions, ref Jones et al. 2006 / Kaushansky et al. Chem and Biol 2008) was 2000 nM and the Kd (protein VAV2, all original PM interactions, ref Jones et al. 2006 / Kaushansky et al. Chem and Biol 2008) was 2000 nM. For the same substance, the Kd (protein VAV2, ref Jones et al. 2006 / Kaushansky et al. Chem and Biol 2008) was 770 nM.

In the case of FGGAVENPEpYLTPQGGA [ErbB2 1196], the Kd [1] is listed as 480 nM, the Kd (Protein CRKL, most recent PM interactions, ref Jones et al. 2006 / Kaushansky et al. Chem and Biol 2008) is listed as 1440 nM and the Kd [2] is listed as 1680 nM. For the same substance, the Kd [3] was 1330 nM, the Kd [4] was 770 nM and the Kd [5] was 1100 nM. For the same substance, the Kd [6] was 230 nM, the Kd [7] was 1280 nM and the Kd [8] was 1390 nM. The Kd [9] was 1340 nM, the Kd [10] was 1350 nM and the Kd [11] was 670 nM. The Kd (Protein SHC1-PTB, most recent PM interactions, ref Jones et al. 2006 / Kaushansky et al. Chem and Biol 2008) was 350 nM, the Kd (Protein SYK-C, most recent PM interactions, ref Jones et al. 2006 / Kaushansky et al. Chem and Biol 2008) was 1240 nM and the Kd [12] was 1330 nM. For the same substance, the Kd [13] was 1250 nM, the Kd [14] was 230 nM and the Kd (Protein VAV3, most recent PM interactions, ref Jones et al. 2006 / Kaushansky et al. Chem and Biol 2008) was 600 nM. For the same substance, the Kd (Protein YES1, most recent PM interactions, ref Jones et al. 2006 / Kaushansky et al. Chem and Biol 2008) was 1190 nM.

For “QNPVpYHNQPLNPd [ErbB1 pY1110, N-terminally rhodamine-labeled 13-mer phosphopeptide]”, the Kd (protein ABL1, ref Jones et al. 2006 / Kaushansky et al. Mol Biosys 2008 / Kaushansky et al. Chem and Biol 2008) is listed as 520 nM, the Kd [15] is listed as 60 nM and the Kd (protein GRB2, ref Jones et al. 2006 / Kaushansky et al. Mol Biosys 2008 / Kaushansky et al. Chem and Biol 2008) is listed as 2000 nM. The Kd (protein NCK2, ref Jones et al. 2006 / Kaushansky et al. Mol Biosys 2008 / Kaushansky et al. Chem and Biol 2008) was 2000 nM and the Kd (protein SHC1-PTB, ref Jones et al. 2006 / Kaushansky et al. Mol Biosys 2008 / Kaushansky et al. Chem and Biol 2008) was 320 nM.

For “GSKPpYDGIPASEd [ErbB1 pY915, N-terminally rhodamine-labeled 13-mer phosphopeptide]”, the Kd [15] is given as 140 nM, the Kd (protein BLK, ref Jones et al. 2006 / Kaushansky et al. Mol Biosys 2008 / Kaushansky et al. Chem and Biol 2008) is given as 1180 nM and the Kd (protein RASA1-N, ref Jones et al. 2006 / Kaushansky et al. Mol Biosys 2008 / Kaushansky et al. Chem and Biol 2008) is given as 1470 nM. The Kd (protein SHB, ref Jones et al. 2006 / Kaushansky et al. Mol Biosys 2008 / Kaushansky et al. Chem and Biol 2008) was 1060 nM, the Kd (protein SYK-NC, ref Jones et al. 2006 / Kaushansky et al. Mol Biosys 2008 / Kaushansky et al. Chem and Biol 2008) was 1550 nM and the Kd (protein YES1, ref Jones et al. 2006 / Kaushansky et al. Mol Biosys 2008 / Kaushansky et al. Chem and Biol 2008) was 330 nM.

In the case of HQISLDNPDpYQQDFFPKd [ErbB1 1172], the Kd (Protein ABL2, most recent PM interactions, ref Jones et al. 2006 / Kaushansky et al. Mol Biosys 2008 / Kaushansky et al. Chem and Biol 2008) is given as 490 nM, the Kd (Protein RASA1-N, most recent PM interactions, ref Jones et al. 2006 / Kaushansky et al. Mol Biosys 2008 / Kaushansky et al. Chem and Biol 2008) is given as 1140 nM and the Kd (Protein SHC1-PTB, most recent PM interactions, ref Jones et al. 2006 / Kaushansky et al. Mol Biosys 2008 / Kaushansky et al. Chem and Biol 2008) is given as 40 nM. For the same substance, the Kd (Protein SHC2-PTB, most recent PM interactions, ref Jones et al. 2006 / Kaushansky et al. Mol Biosys 2008 / Kaushansky et al. Chem and Biol 2008) was 1310 nM and the Kd (Protein SYK-NC, most recent PM interactions, ref Jones et al. 2006 / Kaushansky et al. Mol Biosys 2008 / Kaushansky et al. Chem and Biol 2008) was 1280 nM.

For “VSVPpYRAPTSTI [ErbB4 pY1081, N-terminally rhodamine-labeled 13-mer phosphopeptide]”, the Kd (protein ABL2, ref Kaushansky et al. Chem and Biol 2008) is given as 1230 nM and the Kd (protein CRKL, ref Kaushansky et al. Chem and Biol 2008) is given as 1240 nM.

In the case of “DEKEpYNADGGKMd [ErbB4 pY875, N-terminally rhodamine-labeled 13-mer phosphopeptide]”, the Kd (protein PLCG2-NC, ref Kaushansky et al. Chem and Biol 2008) is listed as 1140 nM.

In the case of LGSGAFGTVpYKGLWIPEd [ErbB1 727], the Kd (Protein SRC, most recent PM interactions, ref Kaushansky et al. Mol Biosys 2008) is given as 580 nM and the Kd (Protein YES1, most recent PM interactions, ref Kaushansky et al. Mol Biosys 2008) is given as 540 nM.
